# In patent US20130101615A1, “METHODS FOR PREVENTING OR TREATING A DISEASE OR CONDITION ASSOCIATED WITH MYCOBACTERIUM AVIUM SUBSPECIES PARATUBERCULOSIS” (priority 2005, published 2013):
# Several values for one entry are separate records, joined by “and”; a condition that tells them apart may be missing. Equal entries are not always repeated. Entries after “also recorded” stand apart in the source; their conditions may differ. Where two headings read alike, the source gives them in different places.
# Experiments:
# [1] = system: M. avium ATCC 25291; type: cell-based, M. avium subspecies avium; conditions: for effect on growth, in words / %-ΔcGI: M. avium ATCC 25291; for % ΔcGI: M. avium 25291, vs 3.2% DMSO control; for %-ΔcGI: Example 5
# [2] = system: MAP ATCC 19698 (bovine); type: cell-based, Mycobacterium avium subspecies paratuberculosis; conditions: for % ΔcGI: Bovine MAP 19698, vs 3.2% DMSO control; for %-ΔcGI: Example 5
# [3] = system: MAP Dominic (ATCC 43545), isolated from human with Crohn's disease; type: cell-based, Mycobacterium avium subspecies paratuberculosis; conditions: for %−ΔcGI (percent decrease in cumulative GI): MAP Dominic; for % ΔcGI: vs 3.2% DMSO control
# [4] = system: M. avium 101; type: cell-based, M. avium subspecies avium; conditions: for % ΔcGI: vs 3.2% DMSO control; for %-ΔcGI: Example 5
# [5] = system: MAP; assay: Growth inhibition of MAP (strain not stated or MAP strains in general); conditions: for %−ΔcGI (percent decrease in cumulative GI): Example 3, strain not stated; for effect on growth of MAP, in words: MAP strains in general
# [6] = system: MAP UCF 4, isolated from human with Crohn's disease; assay: Radiometric BACTEC growth inhibition, MAP UCF4; type: cell-based, Mycobacterium avium subspecies paratuberculosis; conditions: for % ΔcGI: Human MAP UCF4, vs 3.2% DMSO control
# [7] = system: MAP 303 (ruminant with Johne's disease); assay: Radiometric BACTEC growth inhibition, MAP 303; type: cell-based, Mycobacterium avium subspecies paratuberculosis; conditions: Bovine MAP 303, vs 3.2% DMSO control
# [8] = 1 μg/ml, Human MAP Dominic Expt. 1
# [9] = 1 μg/ml, Human MAP Dominic Expt. 2
# [10] = 4 μg/ml, Human MAP Dominic Expt. 1
# [11] = 4 μg/ml, Human MAP Dominic Expt. 2
# [12] = 16 μg/ml, Human MAP Dominic Expt. 1
# [13] = 16 μg/ml, Human MAP Dominic Expt. 2
# [14] = 64 μg/ml, Human MAP Dominic Expt. 1
# [15] = 64 μg/ml, Human MAP Dominic Expt. 2
# [16] = 1 μg/ml, MAP Dominic Expt A, Example 5
# [17] = 1 μg/ml, MAP Dominic Expt B, Example 5
# [18] = 4 μg/ml, MAP Dominic Expt A, Example 5
# [19] = 4 μg/ml, MAP Dominic Expt B, Example 5
# [20] = 16 μg/ml, MAP Dominic Expt A, Example 5
# [21] = 16 μg/ml, MAP Dominic Expt B, Example 5
# [22] = 64 μg/ml, MAP Dominic Expt A, Example 5
# [23] = 64 μg/ml, MAP Dominic Expt B, Example 5
structure (smiles),measurement,setting,value
"Sc1ncnc2nc[nH]c12 [6-MP, 6-mercaptopurine]","effect on growth, in words",[1],less susceptibility to 6-MP than to methotrexate
same,%−ΔcGI (percent decrease in cumulative GI),"[2]; 4 μg/ml, MAP 19698, Example 3",~80% and 84%
same,%−ΔcGI (percent decrease in cumulative GI),"[3]; 4 μg/ml, Example 3",41%
same,"effect on growth, in words",[4],less susceptibility to 6-MP than to methotrexate
same,%−ΔcGI (percent decrease in cumulative GI),[5]; 1 μg/ml,≥ 43%
same,%−ΔcGI (percent decrease in cumulative GI),[5]; 4 μg/ml,≥ 84%
same,"effect on growth of MAP, in words",[5],inhibit the growth kinetics of MAP
"CO[C@H]1C[C@@H]2CC[C@@H](C)[C@@](O)(O2)C(=O)C(=O)N2CCCC[C@H]2C(=O)O[C@H]([C@H](C)C[C@@H]2CC[C@@H](O)[C@H](OC)C2)CC(=O)[C@H](C)/C=C(\C)[C@@H](O)[C@@H](OC)C(=O)[C@H](C)C[C@H](C)/C=C/C=C/C=C/1C [Rapamycin, sirolimus (rapamycin)]",% ΔcGI,[1]; 1 μg/ml,10%
same,% ΔcGI,[1]; 4 μg/ml,7%
same,% ΔcGI,[1]; 16 μg/ml,11%
same,% ΔcGI,[1]; 64 μg/ml,−18%
same,"effect on growth, in words",[1],no inhibition; also recorded: no effect
same,% ΔcGI,[6]; 1 μg/ml,−14%
same,% ΔcGI,[6]; 4 μg/ml,−9%
same,% ΔcGI,[6]; 16 μg/ml,−29%
same,% ΔcGI,[6]; 64 μg/ml,−76%
same,%−ΔcGI (percent decrease in cumulative GI),"[6]; 64 μg/ml, MAP UCF 4",76%
same,"inhibition, in words","[6]; lower concentrations (1 and 16 μg/ml), MAP UCF 4",no inhibition
same,% ΔcGI,[2]; 1 μg/ml,−3%
same,% ΔcGI,[2]; 4 μg/ml,−1%
same,% ΔcGI,[2]; 16 μg/ml,−18%
same,% ΔcGI,[2]; 64 μg/ml,−43%
same,% ΔcGI,[3]; [8],21%
same,% ΔcGI,[3]; [9],0%
same,% ΔcGI,[3]; [10],13%
same,% ΔcGI,[3]; [11],−7%
same,% ΔcGI,[3]; [12],−10%
same,% ΔcGI,[3]; [13],−9%
same,% ΔcGI,[3]; [14],−58%
same,% ΔcGI,[3]; [15],−44%
same,% ΔcGI,[4]; 1 μg/ml,−19%
same,% ΔcGI,[4]; 4 μg/ml,−7%
same,% ΔcGI,[4]; 16 μg/ml,−28%
same,% ΔcGI,[4]; 64 μg/ml,−39%
same,% ΔcGI,[7]; 1 μg/ml,4%
same,% ΔcGI,[7]; 4 μg/ml,−11%
same,% ΔcGI,[7]; 16 μg/ml,−15%
same,% ΔcGI,[7]; 64 μg/ml,−39%
CC[C@H]1OC(=O)[C@H](C)[C@@H](O[C@H]2C[C@@](C)(OC)[C@@H](O)[C@H](C)O2)[C@H](C)[C@@H](O[C@@H]2O[C@H](C)C[C@H](N(C)C)[C@H]2O)[C@](C)(OC)C[C@@H](C)C(=O)[C@H](C)[C@@H](O)[C@]1(C)O [clarithromycin],"effect on growth, in words",[1],no evidence of growth
same,%−ΔcGI (percent decrease in cumulative GI),"[2]; 4 μg/ml, MAP 19698, Example 3",~80%
same,%−ΔcGI (percent decrease in cumulative GI),[5]; 0.5 μg/ml,≥ 86%
"CC(C)/N=c1\cc2n(-c3ccc(Cl)cc3)c3ccccc3nc-2cc1Nc1ccc(Cl)cc1 [Clofazimine, clofazimine]",% ΔcGI,[1]; 1 μg/ml,−98%
same,% ΔcGI,[1]; 4 μg/ml,−98%
same,% ΔcGI,[1]; 16 μg/ml,−98%
same,% ΔcGI,[1]; 64 μg/ml,−99%
same,% ΔcGI,[6]; 1 μg/ml,−99%
same,% ΔcGI,[6]; 4 μg/ml,−99%
same,% ΔcGI,[6]; 16 μg/ml,−99%
same,% ΔcGI,[6]; 64 μg/ml,−99%
same,% ΔcGI,[2]; 1 μg/ml,−99%
same,% ΔcGI,[2]; 4 μg/ml,−99%
same,% ΔcGI,[2]; 16 μg/ml,−99%
same,% ΔcGI,[2]; 64 μg/ml,−99%
same,% ΔcGI,[3]; [8],−99%
same,% ΔcGI,[3]; [9],−99%
same,% ΔcGI,[3]; [10],−99%
same,% ΔcGI,[3]; [11],−99%
same,% ΔcGI,[3]; [12],−99%
same,% ΔcGI,[3]; [13],−99%
same,% ΔcGI,[3]; [14],−99%
same,% ΔcGI,[3]; [15],−99%
same,%−ΔcGI (percent decrease in cumulative GI),[3]; at 0.5 (concentration unit not given),97%
same,% ΔcGI,[4]; 1 μg/ml,−98%
same,% ΔcGI,[4]; 4 μg/ml,−98%
same,% ΔcGI,[4]; 16 μg/ml,−98%
same,% ΔcGI,[4]; 64 μg/ml,−99%
same,% ΔcGI,[7]; 1 μg/ml,−99%
same,% ΔcGI,[7]; 4 μg/ml,−99%
same,% ΔcGI,[7]; 16 μg/ml,−99%
same,% ΔcGI,[7]; 64 μg/ml,−99%
Nc1ccc(S(=O)(=O)Nc2ccccn2)cc1 [sulfapyridine],"effect on proliferation / cumulative growth index, in words",[2]; MAP ATCC 19698,little effect on the cumulative growth index of MAP
same,"effect on growth, in words",[4],inhibited M. avium 101 in a dose-dependent manner
"O=C1CCC(N2C(=O)c3ccccc3C2=O)C(=O)N1 (stereo not drawn) [Thalidomide (+), thalidomide]",%-ΔcGI,"[3]; 1 μg/ml, MAP (Dominic), Table 4",−4%
same,%-ΔcGI,"[3]; 4 μg/ml, MAP (Dominic), Table 4",1%
same,%-ΔcGI,"[3]; 16 μg/ml, MAP (Dominic), Table 4",−14%
same,%-ΔcGI,"[3]; 64 μg/ml, MAP (Dominic), Table 4",−58%
same,%-ΔcGI,[4]; 1 μg/ml,4%
same,%-ΔcGI,[4]; 4 μg/ml,−5%
same,%-ΔcGI,[4]; 16 μg/ml,16%
same,%-ΔcGI,[4]; 64 μg/ml,−19%
same,"effect on growth of MAP, in words",[5],more inhibitory than thalidomide (−)
O=C1CCCC(=O)N1O [HPD],%-ΔcGI,[1]; 1 μg/ml,−4%
same,%-ΔcGI,[1]; 4 μg/ml,47%
same,%-ΔcGI,[1]; 16 μg/ml,22%
same,%-ΔcGI,[1]; 64 μg/ml,21%
same,"effect on growth, in words",[1],no dose-dependent inhibition
same,%-ΔcGI,"[2]; 1 μg/ml, MAP ATCC 19698",22%
same,%-ΔcGI,"[2]; 4 μg/ml, MAP ATCC 19698",7%
same,%-ΔcGI,"[2]; 16 μg/ml, MAP ATCC 19698",−3%
same,%−ΔcGI (percent decrease in cumulative GI),"[2]; 64 μg/ml, MAP ATCC 19698",−44%
same,%-ΔcGI,"[2]; 64 μg/ml, MAP ATCC 19698",−44%
same,%-ΔcGI,[3]; [16],−5%
same,%-ΔcGI,[3]; [17],16%
same,%-ΔcGI,[3]; [18],−7%
same,%-ΔcGI,[3]; [19],6%
same,%-ΔcGI,[3]; [20],−18%
same,%-ΔcGI,[3]; [21],12%
same,%−ΔcGI (percent decrease in cumulative GI),[3]; 64 μg/ml,46%
same,%-ΔcGI,[3]; [22],−46%
same,%-ΔcGI,[3]; [23],−19%
same,"effect on growth, in words",[4],no dose-dependent inhibition
same,%-ΔcGI,[4]; 1 μg/ml,−12%
same,%-ΔcGI,[4]; 4 μg/ml,−52%
same,%-ΔcGI,[4]; 16 μg/ml,−21%
same,%-ΔcGI,[4]; 64 μg/ml,−36%
same,"effect on growth of MAP, in words",[5],the most potent inhibitory agent evaluated; also recorded: inhibits the growth of MAP
CC1(C)S[C@@H]2[C@H](NC(=O)[C@H](N)c3ccccc3)C(=O)N2[C@H]1C(=O)O [ampicillin],%−ΔcGI (percent decrease in cumulative GI),[5]; 32 μg/ml,21%
CN(Cc1cnc2nc(N)nc(N)c2n1)c1ccc(C(=O)N[C@@H](CCC(=O)O)C(=O)O)cc1 [methotrexate],%−ΔcGI (percent decrease in cumulative GI),[5]; 2 μg/ml,40%
same,%−ΔcGI (percent decrease in cumulative GI),[5]; 4 μg/ml,≥ 75%
same,"effect on growth of MAP, in words",[5],inhibit the growth kinetics of MAP
O=C(O)c1cc(/N=N/c2ccc(S(=O)(=O)Nc3ccccn3)cc2)ccc1O [sulfasalazine],"effect on proliferation / cumulative growth index, in words",[2]; MAP ATCC 19698,little effect on the cumulative growth index of MAP
Nc1ccc(C(=O)O)c(O)c1 [p-aminosalicylic acid],"effect on proliferation / cumulative growth index, in words",[2]; MAP ATCC 19698,inhibited the proliferation of MAP (ATCC 19698) in a dose-dependent manner
"Nc1ccc(O)c(C(=O)O)c1 [5-ASA, 5-aminosalicylic acid]","effect on proliferation / cumulative growth index, in words",[2]; MAP ATCC 19698,inhibited the proliferation of MAP (ATCC 19698) in a dose-dependent manner
same,"effect on growth, in words",[4],little effect
"O=C1CCC(N2C(=O)c3ccccc3C2=O)C(=O)N1 (racemic) [Thalidomide (±), thalidomide]",%-ΔcGI,[1]; 1 μg/ml,34%
same,%-ΔcGI,[1]; 4 μg/ml,37%
same,%-ΔcGI,[1]; 16 μg/ml,28%
same,%-ΔcGI,[1]; 64 μg/ml,25%
same,"effect on growth, in words",[1],no dose-dependent inhibition
same,%-ΔcGI,"[2]; 1 μg/ml, MAP ATCC 19698",4%
same,%-ΔcGI,"[2]; 4 μg/ml, MAP ATCC 19698",8%
same,%-ΔcGI,"[2]; 16 μg/ml, MAP ATCC 19698",−7%
same,%−ΔcGI (percent decrease in cumulative GI),"[2]; 64 μg/ml, MAP ATCC 19698",26%
same,%-ΔcGI,"[2]; 64 μg/ml, MAP ATCC 19698",−26%
same,%-ΔcGI,[3]; [16],−2%
same,%-ΔcGI,[3]; [17],0%
same,%-ΔcGI,[3]; [18],−4%
same,%-ΔcGI,[3]; [19],−2%
same,%-ΔcGI,[3]; [20],−9%
same,%-ΔcGI,[3]; [21],−5%
same,%−ΔcGI (percent decrease in cumulative GI),[3]; 64 μg/ml,31%
same,%-ΔcGI,[3]; [22],−31%
same,%-ΔcGI,[3]; [23],−13%
same,"effect on growth, in words",[4],no dose-dependent inhibition
same,%-ΔcGI,[4]; 1 μg/ml,−20%
same,%-ΔcGI,[4]; 4 μg/ml,−5%
same,%-ΔcGI,[4]; 16 μg/ml,6%
same,%-ΔcGI,[4]; 64 μg/ml,−14%
